From patent US20080161245A1, “Protein-Binding Anthracycline Peptide Derivatives and Drugs Containing Them” (KTB Tumorforschungsgesellschaft mbH, priority 2005, published 2008)
*: point of attachment. Hexanoyl(6-maleimido) = O=C1C=CC(=O)N1CCCCCC(=O)*

Legend:
CWR22 tissue homogenate = experiment: Cleavage study of the doxorubicin dipeptide with CWR22 tissue homogenate (HPLC); type: in vitro ADME; details: pH 7.4, 37° C., anthracycline 100 μM, 5 minutes, 6 hours, 20 hours, FIG. 2
Experimental: FIG. 2 is chromatogram of a cleavage study of the doxorubicin-dipeptide Doxo-Arg-Ser with PSA-positive prostate carcinoma CWR22. Chromatogram of an incubation study of the cleaved doxorubicin-dipeptide [Doxo-Arg-Ser] with CWR22 homogenate recorded at 37° C. after 0 hours, 6 hours, and 20 hours. The concentration of anthracycline was […]. HPLC conditions: see FIG. 1. The CWR22 homogenate (250 mg/l mL) was produced by homogenization of CWR22 xenograft tumors in 50 mM tris-HCl buffer at pH 7.4 containing 1 mM monothioglycerol.
An incubation study at 37° C. with CWR22 tissue homogenate at pH 7.4 was conducted with the doxorubicin dipeptide (Doxo-Arg-Ser) obtained as described in Example 2. The concentration of anthracycline was 100 μM. HPLC chromatography was conducted under the conditions of Example 2 after 5 minutes, 6 hours, and 20 hours.

[1] = target: T1, cysteine-34 position of endogenous albumin (Homo sapiens, UniProt P02768); experiment: Incubation study with human plasma (binding to albumin, HPLC); details: 37° C., 100 μM, after 5 and 90 minutes, FIG. 4
T1 construct: cysteine-34 position of endogenous albumin in blood plasma; from tissue; host or cells: human blood plasma
Experimental: FIG. 4 is chromatogram of an incubation study of compound 3 with human plasma at 37° C. after 5 and 90 minutes. Chromatogram of an incubation study of compound 3 with human plasma at 37° C. after 5 and 90 minutes. The concentration of the anthracycline was 100 μM. HPLC chromatography conditions: see FIG. 3.

[2] = tested on: PSA-positive xenograft model CWR22; experiment: In-vivo activity in the PSA-positive xenograft model (CWR22); design: species or system hairless mice
Experimental: The course of the tumor growth of the subcutaneously growing PSA-positive xenograft model CWR22, which was treated with structure 3 [dose (i.v.): 2×13.3 μmol/kg (=2×8 mg/kg doxorubicin equivalents) on days 13 and 20; 3×39.9 μmol/kg (=3×24 mg/kg doxorubicin equivalents) on days 13, 20, and 27; and 3×59.9 μmol/kg (=3×36 mg/kg doxorubicin equivalents) on days 13, 20, and 27] is shown in FIG. 6.
Animals: hairless mice. Stock solution of compound 3:6.0 mg/mL in 10 mM sodium phosphate, 5% D-glucose (pH 6.4); control (buffer): glucose-phosphate buffer (10 mM sodium phosphate, 5% D-glucose—pH 6.4) on days 13 and 20.
The course of the tumor growth of the subcutaneously growing PSA-positive xenograft model CWR22, which was treated with structure 1 [dose (i.v.): 2×13.3 μmol/kg (=2×8 mg/kg doxorubicin equivalents) on days 13 and 20; 3×26.3 μmol/kg (=3×16 mg/kg doxorubicin equivalents) or with buffer (control) on days 13 and 20], is shown in FIG. 7.
Animals: hairless mice. Stock solution of compound 1:7.4 mg/mL in 10 mM sodium phosphate, 5% D-glucose (pH 6.4); control (buffer): glucose-phosphate buffer (10 mM sodium phosphate, 5% D-glucose—pH 6.4) on days 13 and 20.

| Substance | cleavage in tumor tissue homogenate (CWR22 tissue homogenate) | binding to albumin in blood plasma [1] | antitumoral effect (relative tumor volume) ([2]; i.v. 2×13.3 μmol/kg on days 13 and 20, 3×26.3 μmol/kg, subcutaneous CWR22, FIG. 7) | antitumoral effect (relative tumor volume) ([2]; i.v. 2×13.3, 3×39.9 and 3×59.9 μmol/kg on days 13, 20 (27), subcutaneous CWR22, FIG. 6) |
| --- | --- | --- | --- | --- |
| Doxo-Arg-Ser | cleaved to doxorubicin in tumor tissue | – | – | – |
| EMC-Arg-Arg-Ser-Ser-Tyr-Tyr-Ser-Gly-Doxo ({Hexanoyl(6-maleimido)}-RRSSYYSG-doxorubicin) [compound 3] | – | binds selectively within a few minutes | good antitumoral effect | good antitumoral effect |
